Measurements taken from the NIST ThermoML archive (doi:10.1016/j.fluid.2014.11.026).
“And” between values parts separate entries of the source, which are not always exact repeats. Equal values may be shown once.

Conditions: Closed cell (Static) method

C=CC(C)(O)CCC=C(C)C (stereo not drawn) [3,7-dimethyl-1,6-octadien-3-ol]
Liquid
Conditions | vapor or sublimation pressure
284.62 K | 0.006422 kPa
286.91 K | 0.008001 kPa
289.26 K | 0.01007 kPa
291.61 K | 0.01262 kPa
294.02 K | 0.01583 kPa
296.39 K | 0.01969 kPa and 0.01967 kPa
298.77 K | 0.0242 kPa
301.14 K | 0.02977 kPa
301.2 K | 0.02999 kPa
303.59 K | 0.03677 kPa
305.95 K | 0.04473 kPa
305.99 K | 0.04494 kPa
308.38 K | 0.05475 kPa
310.74 K | 0.0661 kPa
310.78 K | 0.06649 kPa
313.18 K | 0.08076 kPa
316.23 K | 0.1024 kPa
321.01 K | 0.1464 kPa
325.83 K | 0.2062 kPa
330.68 K | 0.2877 kPa
335.48 K | 0.394 kPa
340.29 K | 0.5345 kPa
342.71 K | 0.6231 kPa
345.69 K | 0.7489 kPa
348.12 K | 0.8693 kPa
350.51 K | 0.9921 kPa
352.9 K | 1.136 kPa

CCCCC(=O)CCCC [5-nonanone]
Liquid
Conditions | vapor or sublimation pressure [kPa]
283.83 K | 0.02528
283.85 K | 0.02535
286.19 K | 0.03083
288.55 K | 0.03722
290.9 K | 0.04494
293.32 K | 0.05439
293.35 K | 0.0544
295.75 K | 0.06539
298.1 K | 0.07793
298.12 K | 0.0783
300.56 K | 0.09349
302.92 K | 0.1107
302.94 K | 0.111
305.38 K | 0.1321
307.75 K | 0.1553
307.77 K | 0.1559
310.19 K | 0.1839
312.99 K | 0.2228
313.02 K | 0.2225
315 K | 0.2527
315.38 K | 0.2591
317.8 K | 0.3037
317.81 K | 0.3041
320.16 K | 0.3527
320.18 K | 0.3545
322.58 K | 0.4099
322.62 K | 0.4118
324.99 K | 0.476
325.05 K | 0.4746
327.44 K | 0.5474
327.49 K | 0.5494
329.9 K | 0.6318
329.95 K | 0.638
332.32 K | 0.7257
332.35 K | 0.7296
334.71 K | 0.8311
334.74 K | 0.8375
337.13 K | 0.9562
337.15 K | 0.9511

CC(=O)CCC=C(C)C [6-methyl-5-hepten-2-one]
Liquid
Conditions | vapor or sublimation pressure
283.85 K | 0.05465 kPa
283.86 K | 0.05482 kPa and 0.05462 kPa
283.92 K | 0.05498 kPa
286.18 K | 0.06551 kPa
286.23 K | 0.06608 kPa
286.24 K | 0.06599 kPa
288.57 K | 0.07931 kPa
288.59 K | 0.07922 kPa
288.61 K | 0.07945 kPa
288.69 K | 0.07994 kPa
290.97 K | 0.09477 kPa
291 K | 0.09535 kPa
291.02 K | 0.09517 kPa
293.47 K | 0.1142 kPa
293.49 K | 0.1148 kPa
295.81 K | 0.1358 kPa
295.85 K | 0.1362 kPa
295.88 K | 0.1365 kPa
298.28 K | 0.1619 kPa
298.31 K | 0.1623 kPa
300.61 K | 0.1903 kPa
300.65 K | 0.1915 kPa
300.69 K | 0.1919 kPa
303.12 K | 0.2264 kPa
303.15 K | 0.2273 kPa
305.45 K | 0.2654 kPa
305.48 K | 0.2664 kPa
305.54 K | 0.2673 kPa
307.99 K | 0.3137 kPa
308.02 K | 0.3147 kPa
310.3 K | 0.3637 kPa
310.36 K | 0.3668 kPa
310.42 K | 0.3665 kPa
312.88 K | 0.4306 kPa
312.9 K | 0.4306 kPa
315.16 K | 0.4939 kPa
315.23 K | 0.4983 kPa
315.28 K | 0.4979 kPa
317.72 K | 0.5789 kPa
317.75 K | 0.5801 kPa
320.01 K | 0.6665 kPa
320.07 K | 0.6684 kPa
320.13 K | 0.6684 kPa
322.5 K | 0.769 kPa
322.52 K | 0.7718 kPa
322.56 K | 0.7724 kPa
324.84 K | 0.8831 kPa
324.89 K | 0.8852 kPa
324.93 K | 0.8864 kPa
327.28 K | 1.015 kPa
327.32 K | 1.015 kPa
327.36 K | 1.016 kPa

O=C(O)c1ccccc1 [benzoic acid]
Crystal
Conditions | vapor or sublimation pressure [kPa]
297.67 K | 0.000108
299.96 K | 0.000142
300.03 K | 0.000143
302.51 K | 0.000193
304.75 K | 0.00025
307.27 K | 0.000335
309.63 K | 0.000436
312.08 K | 0.000573
314.4 K | 0.000738
314.59 K | 0.000754
316.91 K | 0.000969
319.48 K | 0.00127
321.91 K | 0.001641
324.39 K | 0.002118
326.76 K | 0.002676
329.2 K | 0.003432
331.62 K | 0.004361
334.07 K | 0.005542
336.46 K | 0.006934
338.98 K | 0.008733

O=C(c1ccccc1)c1ccccc1 [benzophenone]
Conditions | vapor or sublimation pressure [kPa]
300.37 K, Crystal | 0.000119
302.88 K, Crystal | 0.000161
302.91 K, Liquid | 0.000237
305.39 K, Crystal | 0.00022
305.41 K, Liquid | 0.000306
307.9 K, Crystal | 0.000302
307.91 K, Liquid | 0.000394
310.26 K, Crystal | 0.000401
310.41 K, Liquid | 0.000503
312.75 K, Crystal | 0.000535
315.24 K, Crystal | 0.000708
317.73 K, Crystal | 0.000939
318.01 K, Liquid | 0.001028
320.23 K, Crystal | 0.001239
320.51 K, Liquid | 0.001288
323.09 K, Liquid | 0.001615
325.59 K, Liquid | 0.002005
328.11 K, Liquid | 0.002469
330.61 K, Liquid | 0.003064
333.13 K, Liquid | 0.003771
335.64 K, Liquid | 0.00461
338.16 K, Liquid | 0.005616
340.68 K, Liquid | 0.006814
343.21 K, Liquid | 0.008284
345.73 K, Liquid | 0.009949
348.24 K, Liquid | 0.01196
350.76 K, Liquid | 0.01435
353.28 K, Liquid | 0.01704
355.79 K, Liquid | 0.02035
358.31 K, Liquid | 0.02415
360.82 K, Liquid | 0.02859
363.34 K, Liquid | 0.03356
368.37 K, Liquid | 0.04652
370.89 K, Liquid | 0.0543

[CH]1C=CC=C1.[CH]1C=CC=C1.[Fe] [ferrocene]
Crystal
Conditions | vapor or sublimation pressure [kPa]
280.91 K | 0.000154
282.03 K | 0.000176
283.33 K | 0.000202
284.44 K | 0.000229
285.74 K | 0.000264
286.87 K | 0.000298
288.14 K | 0.000344
289.31 K | 0.000388
290.59 K | 0.000447
291.71 K | 0.000501
293.03 K | 0.000576
294.12 K | 0.000646
295.42 K | 0.000741
296.52 K | 0.000829
297.8 K | 0.000942
297.83 K | 0.000947
300.23 K | 0.001197
300.35 K | 0.001218
302.84 K | 0.001542
304.06 K | 0.001742
304.13 K | 0.001753
305.54 K | 0.002007
307.9 K | 0.002499
311.31 K | 0.003428
312.99 K | 0.00399
315.35 K | 0.004949
316.48 K | 0.005493
317.93 K | 0.006236
319.06 K | 0.006868
320.29 K | 0.007672
320.95 K | 0.008091
321.69 K | 0.008661
322.63 K | 0.00937
324 K | 0.01056
325.29 K | 0.01176
325.31 K | 0.0117
327.79 K | 0.01447
330.22 K | 0.01764
331.21 K | 0.01908
332.72 K | 0.0215
335.15 K | 0.02616
336.4 K | 0.02867
337.89 K | 0.03234
340.33 K | 0.03875
341.35 K | 0.04176
342.83 K | 0.04685
345.27 K | 0.05631
346.28 K | 0.06042
347.77 K | 0.06739
350.23 K | 0.08052
351.2 K | 0.08649
352.7 K | 0.09579
355.17 K | 0.1142
357.88 K | 0.1377
360.37 K | 0.1622
362.8 K | 0.1914
365.3 K | 0.2244
367.75 K | 0.2639
370.2 K | 0.3093
372.93 K | 0.3682
375.4 K | 0.425
377.87 K | 0.4978
380.32 K | 0.5748
382.8 K | 0.6695
385.27 K | 0.7725
387.75 K | 0.8978
390.22 K | 1.03
392.69 K | 1.185

c1ccc2ccccc2c1 [naphthalene]
Crystal
Conditions | vapor or sublimation pressure [kPa]
297.72 K | 0.01042
300.06 K | 0.0131
302.47 K | 0.01651
304.88 K | 0.02077
307.27 K | 0.02598
309.69 K | 0.03247
312.35 K | 0.04107
314.78 K | 0.05102
317.21 K | 0.06281
319.66 K | 0.0774
322.08 K | 0.0949
324.51 K | 0.1161
326.97 K | 0.1415
